This is an account of results in US20230159445A1, “STAT INHIBITORY COMPOUNDS AND COMPOSITIONS” (JANPIX LIMITED, priority 2020, published 2023).

The term IC50 denotes the concentration that inhibits the measured activity by half. In general, half-life refers to the time in which the quantity being followed falls by half.

One series deals with MV4-11 cells. The experiment in a line: MV4-11 Cell Cytotoxicity Assay (CellTiter-Blue, 72 h). The series is classed as cell-based, human. Particulars: Homo sapiens, MV4-11; MV-4-11 cells. The procedure, abridged: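 Cells seeded 24 h before treatment, then exposed 72 h at 37° C, 5% CO2 to inhibitors in triplicate, top concentration 50 μM with 1:2 serial dilutions (0.5% DMSO vehicle). Viability read by CellTiter-Blue fluorescence at 560/590 nm after 1 h.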
In general terms: Resazurin is reduced to fluorescent resorufin, in cell work by metabolically active cells.

Another series deals with glutathione (GSH). The experiment in a line: Reactivity Profiling with Glutathione (GSH), half-life by HPLC. As to conditions: 5 mM glutathione (GSH) in IMDM with 10% FBS.

With `O=C(O)c1ccc(N(Cc2ccccc2)C(=O)CN(Cc2ccccc2C(F)(F)F)S(=O)(=O)c2c(F)c(F)c(F)c(F)c2F)c(OC2CC2)c1` [Compound 1126, 4-(N-benzyl-2-(N-(2-(trifluoromethyl)benzyl)-(2,3,4,5,6-pentafluoro-phenyl)sulfonamido)acetamido)-3-cyclopropoxybenzoic acid], the IC50 with MV4-11 cells lay within 1000 to 3160 nM. In the series on glutathione (GSH), this molecule had a half-life at 25 μM of 0.1 to 142 min.
On to `COc1cc(C(=O)O)ccc1N(Cc1cc(C2CC2)cc(C(C)(C)C)c1)C(=O)CN(Cc1cc(C(F)(F)F)ccn1)S(=O)(=O)c1c(F)c(F)c(F)c(F)c1F` [Compound 1134, 4-(N-(3-(tert-butyl)-5-cyclopropylbenzyl)-2-(N-((4-(trifluoromethyl)pyridin-2-yl)methyl)-(2,3,4,5,6-pentafluoro-phenyl)sulfonamido)acetamido)-3-methoxybenzoic acid], for which the IC50 with MV4-11 cells lay within 1000 to 3160 nM. The half-life at 25 μM in the series with glutathione (GSH) lay within 142 to 247 min.
`COc1cc(C(=O)O)ccc1N(Cc1cccc(N2CCCC2)c1)C(=O)CN(Cc1cnccc1C(F)(F)F)S(=O)(=O)c1c(F)c(F)c(F)c(F)c1F` [Compound 1153, 3-methoxy-4-(2-(N-((4-(trifluoromethyl)pyridin-3-yl)methyl)-(2,3,4,5,6-pentafluoro-phenyl)sulfonamido)-N-(3-(pyrrolidin-1-yl)benzyl)acetamido) benzoic acid] had an IC50 in the series with MV4-11 cells of 316 to 1000 nM. This molecule also showed a half-life at 25 μM with glutathione (GSH) of 0.1 to 142 min.
In the case of `CN(C)c1ccccc1CN(CC(=O)N(Cc1cc(C2CC2)cc(C(C)(C)C)c1)c1ccc(C(=O)O)cc1OC1CC1)S(=O)(=O)c1c(F)c(F)c(F)c(F)c1F` [Compound 1236, 4-(N-(3-(tert-butyl)-5-cyclopropylbenzyl)-2-(N-(2-(dimethylamino)benzyl)-(2,3,4,5,6-pentafluorophenyl)sulfon-amido)acetamido)-3-cyclopropoxybenzoic acid], the IC50 with MV4-11 cells fell in the range of 316 to 1000 nM. In addition, the half-life at 25 μM in the series with glutathione (GSH) lay in the range of 554 to 100000 min.
The molecule `CC(C)(C)c1cc(CN(C(=O)CN(Cc2ccccc2F)S(=O)(=O)c2c(F)c(F)c(F)c(F)c2F)c2ccc(C(=O)O)c(N)c2)cc(C2CC2)c1` [Compound 1070, 2-amino-4-(N-(3-(tert-butyl)-5-cyclopropylbenzyl)-2-(N-(2-fluorobenzyl)-(2,3,4,5,6-pentafluoro-phenyl)sulfonamido)acetamido)benzoic acid] had an IC50 with MV4-11 cells of 316 to 1000 nM. The half-life at 25 μM in the series on glutathione (GSH) fell in the range of 0.1 to 142 min.
The molecule `CC(C)(C)c1cc(CN(C(=O)CN(Cc2ccc(Cl)cc2)S(=O)(=O)c2c(F)c(F)c(F)c(F)c2F)c2ccc(C(=O)O)cc2OC(F)(F)F)cc(C2CC2)c1` [Compound 1050, 4-(N-(3-(tert-butyl)-5-cyclopropylbenzyl)-2-(N-(4-chlorobenzyl)-(2,3,4,5,6-pentafluorophenyl)sulfon-amido)acetamido)-3-(trifluoromethoxy) benzoic acid] returned an IC50 in the series on MV4-11 cells of 1000 to 3160 nM. Besides, in the series on glutathione (GSH), the half-life at 25 μM lay in the range of 554 to 100000 min.
Turning to `CC(C)(C)c1cc(CN(C(=O)CN(Cc2ccccc2F)S(=O)(=O)c2c(F)c(F)c(F)c(F)c2F)c2cc(C(=O)O)ccc2OC2CC2)cc(C2CC2)c1` [Compound 1110, 3-(N-(3-(tert-butyl)-5-cyclopropylbenzyl)-2-(N-(2-fluorobenzyl)-(2,3,4,5,6-pentafluoro-phenyl)sulfonamido)acetamido)-4-cyclopropoxybenzoic acid], the IC50 in the series with MV4-11 cells fell in the range of 316 to 1000 nM. In the series on glutathione (GSH), this molecule yielded a half-life at 25 μM of 142 to 247 min.
Consider `CC(C)(C)c1cc(CN(C(=O)CN(C2CC2)S(=O)(=O)c2c(F)c(F)c(F)c(F)c2F)c2ccc(C(=O)O)cc2OC2CC2)cc(C2CC2)c1` [Compound 1100, 4-(N-(3-(tert-butyl)-5-cyclopropylbenzyl)-2-(N-cyclopropyl-(2,3,4,5,6-pentafluorophenyl)sulfon-amido)acetamido)-3-cyclopropoxybenzoic acid], for which the IC50 with MV4-11 cells fell in the range of 316 to 1000 nM. Moreover, in the series with glutathione (GSH), the half-life at 25 μM was in the range of 0.1 to 142 min.
`COc1cc(C(=O)O)ccc1N(Cc1cc(C2CC2)cc(C(C)(C)C)c1)C(=O)CN(C12CC(C1)C2)S(=O)(=O)c1c(F)c(F)c(F)c(F)c1F` [Compound 1152, 4-(2-(N-(bicyclo[1.1.1]pentan-1-yl)-(2,3,4,5,6-pentafluorophenyl)sulfon-amido)-N-(3-(tert-butyl)-5-cyclopropylbenzyl)acetamido)-3-methoxybenzoic acid] yielded an IC50 with MV4-11 cells of 1000 to 3160 nM. This molecule also yielded a half-life at 25 μM in the series with glutathione (GSH) of 0.1 to 142 min.
With `COc1cc(C(=O)O)ccc1N(Cc1cc(C2CC2)cc(C(C)(C)C)c1)C(=O)CN(Cc1ccncc1C(F)(F)F)S(=O)(=O)c1c(F)c(F)c(F)c(F)c1F` [Compound 1130, 4-(N-(3-(tert-butyl)-5-cyclopropylbenzyl)-2-(N-((3-(trifluoromethyl)pyridin-4-yl)methyl)-(2,3,4,5,6-pentafluoro-phenyl)sulfonamido)acetamido)-3-methoxybenzoic acid], in the series on MV4-11 cells, the IC50 lay in the range of 316 to 1000 nM. In the series on glutathione (GSH), the half-life at 25 μM lay in the range of 142 to 247 min.
`COc1cc(C(=O)O)ccc1N(Cc1cc(C2CC2)cc(C(C)(C)C)c1)C(=O)CN(Cc1c(F)c(F)cc(F)c1F)S(=O)(=O)c1c(F)c(F)c(F)c(F)c1F` [Compound 1082, 4-(N-(3-(tert-butyl)-5-cyclopropylbenzyl)-2-(N-(2,3,5,6-tetrafluorobenzyl)-(2,3,4,5,6-pentafluoro-phenyl)sulfonamido)acetamido)-3-methoxybenzoic acid] gave an IC50 in the series on MV4-11 cells of 0.01 to 316 nM. For the same molecule, the half-life at 25 μM with glutathione (GSH) fell in the range of 142 to 247 min.
In turn, `COc1cc(F)ccc1CN(CC(=O)N(Cc1cc(C2CC2)cc(C(C)(C)C)c1)c1ccc(C(=O)O)cc1OC)S(=O)(=O)c1c(F)c(F)c(F)c(F)c1F` [Compound 1077, 4-(N-(3-(tert-butyl)-5-cyclopropylbenzyl)-2-(N-(4-fluoro-2-methoxybenzyl)-(2,3,4,5,6-pentafluoro-phenyl)sulfonamido)acetamido)-3-methoxybenzoic acid] had an IC50 in the series on MV4-11 cells of 316 to 1000 nM. For the same molecule, the half-life at 25 μM in the series on glutathione (GSH) lay within 142 to 247 min.
Regarding `O=C(O)c1ccc(N(Cc2cccc(-n3cccc3)c2)C(=O)CN(Cc2cnccc2C(F)(F)F)S(=O)(=O)c2c(F)c(F)c(F)c(F)c2F)c(OC2CC2)c1` [Compound 1161, 4-(N-(3-(1H-pyrrol-1-yl)benzyl)-2-(N-((4-(trifluoromethyl)pyridin-3-yl)methyl)-(2,3,4,5,6-pentafluoro-phenyl)sulfonamido)acetamido)-3-cyclopropoxybenzoic acid], the IC50 with MV4-11 cells is 316 to 1000 nM. In the series on glutathione (GSH), this molecule registered a half-life at 25 μM of 0.1 to 142 min.
The molecule `C[C@H](CC(=O)N(Cc1cc(C2CC2)cc(C(C)(C)C)c1)c1ccc(C(=O)O)c(O)c1)N(Cc1ccc(Cl)cc1)S(=O)(=O)c1c(F)c(F)c(F)c(F)c1F` [Compound 1039, (R)-4-(N-(3-(tert-butyl)-5-cyclopropylbenzyl)-3-(N-(4-chlorobenzyl)-(2,3,4,5,6-pentafluorophenyl)sulfon-amido)butanamido)-2-hydroxybenzoic acid] returned an IC50 with MV4-11 cells of 1000 to 3160 nM. For the same molecule, the half-life at 25 μM with glutathione (GSH) lay within 142 to 247 min.
The molecule `COc1cc(C(=O)O)ccc1N(Cc1cc(C2CC2)cc(C(C)(C)C)c1)C(=O)CN(Cc1ccc(C(F)(F)F)cn1)S(=O)(=O)c1c(F)c(F)c(F)c(F)c1F` [Compound 1117, 4-(N-(3-(tert-butyl)-5-cyclopropylbenzyl)-2-(N-((5-(trifluoromethyl)pyridin-2-yl)methyl)-(2,3,4,5,6-pentafluoro-phenyl)sulfonamido)acetamido)-3-methoxybenzoic acid] registered an IC50 with MV4-11 cells of 316 to 1000 nM. Further, in the series with glutathione (GSH), the half-life at 25 μM lay in the range of 142 to 247 min.
